Values belong to the molecule of their own block, whether it stands above or below them.
Assays:
[1] = tested on: AT11-L2 (DNA, G4) TGGTGGTGGTTGTTGTTGGTGGTGGTGGT; assay: CD melting; details: K+ 100 mM, 10 mM lithium cacodylate pH 7.2, 10 µM DNA, 2.0 eq. ligand (20 µM)
[2] = tested on: 5′-Cy5-AT11-L2 (DNA, G4) TGGTGGTGGTTGTTGTTGGTGGTGGTGGT; assay: fluorescence titration (Cy5 quenching), Hill fit; details: K+ 100 mM, 10 mM lithium cacodylate, 1 µM DNA, apparent KD
[3] = tested on: 5′-Cy5-AT11-L2 (DNA, G4) TGGTGGTGGTTGTTGTTGGTGGTGGTGGT; assay: fluorescence titration (Cy5 quenching), Michaelis–Menten fit; details: K+ 100 mM; 10 mM lithium cacodylate; 1 µM DNA; apparent KD
[4] = target: T1, nucleolin RBD1,2 (NCL RBD1,2) (UniProt P19338 307-466); assay: fluorescence titration; PDS (pre-formed G4/ligand complex); Oligonucleotide annealed in 10 mM lithium cacodylate pH 7.2, 100 mM KCl (95 °C 10 min, then ice 10 min); titration temperature not given in the material; details: protein: recombinant; label: 5'-Cy5; intramolecular G4, parallel in 100 mM KCl
[5] = target: T1, nucleolin RBD1,2 (NCL RBD1,2); assay: fluorescence titration; 360A (pre-formed G4/ligand complex); Oligonucleotide annealed in 10 mM lithium cacodylate pH 7.2, 100 mM KCl (95 °C 10 min, then ice 10 min); titration temperature not given in the material; details: protein: recombinant; label: 5'-Cy5; intramolecular G4, parallel in 100 mM KCl
[6] = target: T1, nucleolin RBD1,2 (NCL RBD1,2); assay: fluorescence titration; PhenDC3 (pre-formed G4/ligand complex); Oligonucleotide annealed in 10 mM lithium cacodylate pH 7.2, 100 mM KCl (95 °C 10 min, then ice 10 min); titration temperature not given in the material; details: protein: recombinant; label: 5'-Cy5; intramolecular G4, parallel in 100 mM KCl
[7] = target: T1, nucleolin RBD1,2 (NCL RBD1,2); assay: fluorescence titration; BRACO-19 (pre-formed G4/ligand complex); Oligonucleotide annealed in 10 mM lithium cacodylate pH 7.2, 100 mM KCl (95 °C 10 min, then ice 10 min); titration temperature not given in the material; details: protein: recombinant; label: 5'-Cy5; intramolecular G4, parallel in 100 mM KCl
[8] = target: T1, nucleolin RBD1,2 (NCL RBD1,2); assay: fluorescence titration; TMPyP4 (pre-formed complex; TMPyP4 excess disrupts the G4); Oligonucleotide annealed in 10 mM lithium cacodylate pH 7.2, 100 mM KCl (95 °C 10 min, then ice 10 min); titration temperature not given in the material; details: protein: recombinant; label: 5'-Cy5; intramolecular G4, parallel in 100 mM KCl

T1 sequence (P19338 307-466): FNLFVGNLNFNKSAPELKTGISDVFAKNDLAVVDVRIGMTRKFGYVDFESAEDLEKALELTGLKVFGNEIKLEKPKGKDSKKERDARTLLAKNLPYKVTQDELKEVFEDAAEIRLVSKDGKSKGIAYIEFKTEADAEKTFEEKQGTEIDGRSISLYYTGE

Molecule: CN(C)c1ccc(Nc2c3ccc(NC(=O)CCN4CCCC4)cc3nc3cc(NC(=O)CCN4CCCC4)ccc23)cc1
ΔTm [1]: 22.5 °C
KD ([2]; Hill n = 0.9): 5600 ± 2000 nM

Molecule: C[n+]1ccc(-c2c3nc(c(-c4cc[n+](C)cc4)c4ccc([nH]4)c(-c4cc[n+](C)cc4)c4nc(c(-c5cc[n+](C)cc5)c5ccc2[nH]5)C=C4)C=C3)cc1
ΔTm ([1]; unfolds G4 at 3.5 eq.): 22.9 °C
KD ([2]; Hill n = 1.2): 1300 ± 150 nM

Molecule: TGGTGGTGGTTGTTGTTGGTGGTGGTGGT (structured_DNA) [5'-Cy5-AT11-L2 G4]
Kd [4]: 63 nM
Kd [5]: 6400 nM
Kd [6]: 18 nM
Kd [7]: 150 nM
Kd [8]: 1.2 nM

Continued, values first:

ΔTm [1]: 14.9 °C
KD ([2]; Hill n = 2.2): 1400 ± 85 nM
Molecule: C[n+]1cc(NC(=O)c2ccc3ccc4ccc(C(=O)Nc5cc6ccccc6[n+](C)c5)nc4c3n2)cc2ccccc21

ΔTm [1]: 6.5 °C
KD ([2]; Hill n = 0.6): 31000 ± 60000 nM
Molecule: C[n+]1cc(NC(=O)c2cccc(C(=O)Nc3cc4ccccc4[n+](C)c3)n2)cc2ccccc21

ΔTm [1]: 1.8 °C
KD [3]: 14 ± 4.9 nM
Molecule: NCCOc1cc(C(=O)Nc2cc(OCCN)c3ccccc3n2)nc(C(=O)Nc2cc(OCCN)c3ccccc3n2)c1

Source: PMC9609330
